Measurements as given in patent US8173840B2, “Compounds with high therapeutic index” (Signature R&D Holdings, LLC, priority 2003, dated 2012).
In brackets after ≈: the same amount, converted by molar mass. Several values for one entry are separate records, joined by “and”; a condition that tells them apart may be missing. Identical values can stand only once. Like-named read-outs stand apart in the source and are kept apart here.

Experiments:
laboratory mice [1] = settings: for performance in the model: DSS coupled with drug from day 1; for Mean DAI: DSS coupled with drug from day 1, 10 mice per group
Procedure: Percent animal body weight loss, stool consistency and occult blood at the end of the study will be taken into consideration to calculate Disease Activity Index (“DAI”) of each animal. The following scoring system outlined in Table 30 was for the percent body weight loss, stool consistency and occult blood:
The scores for each parameter for each mouse at the end of study are added together and divided by three (number of observations) to determine DAI. The mean group DAI is the determined. A score of 3 was assigned for any animal that died during the testing.
In this study, DSS administration is coupled with administration of either test or reference drug from day 1.

laboratory mice [2] = assay: DSS induced ulcerative colitis in mice, disease treatment study (Disease Activity Index); assay type: in vivo, mouse; settings: for Mean DAI: treatment started after colitis symptoms, mean of 10 mice
Text: The mean group DAI is the determined.
Much more dramatic results were obtained when the mice were initially treated with DSS to induce colitis. Once clear symptoms of colitis were seen, DSS was replaced by drinking water, and treatment started with test and reference drugs, including vehicle control. All results are mean of 10 mice.

rats = assay: Clotting time in rats, different date, time intervals and doses (Table 24); assay type: in vivo, rat
Text: The following additional data were obtained, when the same drugs were compared in rats on a different date with different time intervals and doses: […]

albino rats = assay: Blood clotting time in albino rats, one hour after dosing; assay type: in vivo, rat; settings: for Mean Clotting Time (±S.D.), Low Dose: 1.0 mg/kg as aspirin; for Mean Clotting Time (±S.D.), Low Dose / Mean Clotting Time (±S.D.), Intermediate Dose / Mean Clotting Time (±S.D.), High Dose / statistical analysis of mean clotting time vs vehicle control: one hour after dosing; for Mean Clotting Time (±S.D.), Intermediate Dose: 4.0 mg/kg as aspirin; for Mean Clotting Time (±S.D.), High Dose: 10.0 mg/kg as aspirin; for effectiveness with respect to clotting time: one hour after administration
Procedure: The data on the mean clotting time (MCT) of the animals of low, intermediate and high dose groups of different formulations, vehicle control and positive control groups estimated one hour after dosing were presented below (Table 19):
Aspirin served as positive control. The study was conducted at three dose levels with the new formulations and positive control along with a vehicle control group.
The doses for the main study were selected based on the dose range finding experiments with acetylsalicylic acid. All the doses were expressed as aspirin molar equivalents. The doses used are presented below.

[3] = system: fasted male albino rats (Wistar strain); assay: Gastric mucosa irritation of acetylsalicylic acid esters; assay type: in vivo, rat; settings: two doses, 100 and 200 mg/kg
Procedure: Aspirin served as a reference control. […] All the doses were expressed as aspirin molar equivalents. The doses used as well as the molar equivalents are presented below. The rats were fasted for a period of 18 to 22 hours before dosing. The test item was administered as a single dose by gavage. Three hours after drug administration, the animals were killed humanely by CO2 gas inhalation. The stomach was dissected out and observed for • the quantity of mucous exudate, • degree of hyperemia and thickening of stomach wall, • hemorrhagic spots (focal or diffuse), nature of hemorrhages (petechial or ecchymotic) along with the size and • perforations

[4] = Plasma aspirin and salicylic acid in human volunteers; assay type: in vivo
Text: This is shown in FIG. 12 which depicts the concentration of salicyclic Acid in human plasma with respect to four volunteers who took Acetylsalicyclic Acid-L-Threonine Ester and two volunteers who took Aspirin.

human volunteers = assay: Blood clotting time studies in human volunteers; assay type: in vivo; settings: for AVERAGE CLOTTING TIME: human volunteers, listed as ASA-T ESTER
Procedure: Several blood clotting time studies were performed on a limited number of human volunteers with Acetylsalicylic Acid-L-Threonine Ester. […] This plot was derived from the data in Table 29. The two Acetylsalicylic Acid-L-Threonine Ester blocks shown above correspond to two separate volunteers who took the test drug over a period of 5 days. The third volunteer took Bayer Aspirin for 5 days. As per FIG. 2, increase in clotting time occurred on the very first day of drug intake, and remained higher than Bayer ASA during the subsequent administrations.

[5] = system: albino rats (Wistar strain); settings: rat, in vivo;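 also: one dose level only, compared with a vehicle control group, with doses stated as Aspirin molar equivalents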
Procedure: The study was conducted at one dose level only along with a vehicle control group as per the recommendation of the Sponsor. The test doses are expressed as Aspirin molar equivalents.

Male albino rats = assay: Blood clotting time in albino rats, 2 hours after dosing; assay type: in vivo, rat; settings: for Mean Clotting Time (± S.D.): 20 mg/kg as aspirin, 2 hours (±10 minutes) after dosing; for mean blood clotting time with respect to positive control (statistics): after two hours
Procedure: Aspirin served as positive control. Male albino rats were exposed to aspirin and to 3 new formulations of amino acid derivatives of aspirin derivatives at one dose level of 20 mg/kg body weight. […]. The doses were expressed as aspirin molar equivalents.
The efficacy in terms of time required for the blood clotting time at the dose level of 20 mg/kg body weight for different formulations of amino acid derivatives of aspirin and aspirin (positive control) are presented below:
The data on the mean clotting time (MCT) of the animals, estimated 2 hours (±10 minutes) after dosing, at the dose level of 20 mg/kg body weight for the formulations of aspirin derivatives, vehicle control and positive control are presented below

[6] = cited from earlier work; for solubility in deionized water: deionized water at 25° C.
albino mouse = assay: Anesthetic effect in male albino mice, righting reflex as index; settings: for efficacy in inducing anesthesia based on time required to regain the righting reflex (conclusion): albino mice; for dose response relation (statistical analysis): low, intermediate, high dose
Text: However the doses of low, intermediate and high for different formulations and reference control were different.
The different doses for each formulation and reference control were selected based on the recommendation of Sponsor. All the doses were expressed as propofol molar equivalents.

[7] = Solubility of propofol and its amino acid esters in water
Text: For example, assume propofol is the drug and lysine is the amino acid.

[8] = system: albino mice (Swiss strain); assay: 14 day repeated dose toxicity study, intravenous route, propofol esters
Procedure: by conducting a 14 day repeated dose toxicity study through intravenous route using albino mice as test system.
Propofol and its derivatives above were administered to albino mice (Swiss strain), through intravenous route daily for a period of 14 days using sterile sodium chloride solution as vehicle. The study was conducted at one dose level only along with a vehicle control group as per the recommendation of the Sponsor.
The doses were selected as per the recommendation of the Sponsor. The test doses are expressed as Propofol molar equivalents.

Molecule: Cyclosporine A N-(L-proline)-glycine ester, hydrochloride [Cyclosporine-GP]
- performance in the model (laboratory mice [1]): statistically significant performance compared to Cyclosporine A
- Mean DAI (laboratory mice [1]): 1.062
- Mean DAI (laboratory mice [2]): 0.066
- statistical result vs Cyclosporine reference drug (laboratory mice [2]; treatment study): statistically significant results

Molecule: CC(=O)Oc1ccccc1C(=O)O[C@H](C)[C@H](N)C(=O)O [2-O-Acetylsalicylic Acid (2S,3R)-(−)-threonine Ester]
- Clotting Time (rats; 10 mg/kg 1 hr): 7.4 min
- Clotting Time (rats; 10 mg/kg 24 hr): 3.6 min
- Clotting Time (rats; 20 mg/kg 2 hr): 5.3 min
- response in the rat blood clotting time (rats; compared against the various amino acid esters): consistently a better response
- Mean Clotting Time (±S.D.), Low Dose (albino rats): 5.2 ± 1.14 min
- Mean Clotting Time (±S.D.), Intermediate Dose (albino rats): 5.6 ± 0.84 min
- Mean Clotting Time (±S.D.), High Dose (albino rats): 7.4 ± 0.97 min
- effectiveness with respect to clotting time (albino rats): as effective as acetylsalicylic acid
- statistical analysis of mean clotting time vs vehicle control (albino rats): significant improvement at 5% significance level in the efficacy for the high dose
- esters inducing evidence of irritation of gastric mucosa [3]: none
- Salicylic Acid in human plasma (profile, words) [4]: prolonged and sustained formation and disappearance of Salicylic acid
- Aspirin in blood / plasma ([4]; 325 mg dose, oral): No Aspirin was found in blood
- AVERAGE CLOTTING TIME (human volunteers; 81 mg): 5.2 min and 5.1 min
- AVERAGE CLOTTING TIME (human volunteers; 325 mg): 6.2 min and 6.0 min
- effectiveness on clotting time (human volunteers; low dose of 80 mg, with baseline correction): as effective as 325 mg Bayer Aspirin
- Adrenals (Abs) organ weight, Significance[P < 0.05] [5]: Decrease (Male)
- Alkaline Phosphatase, Significance [P < 0.05] [5]: Increase (Female)
- All Blood Parameters, Significance [P < 0.05] [5]: None
- All Clinical Chemistry, Significance [P < 0.05] [5]: None(but two
- Blood Glucose, Significance [P < 0.05] [5]: Decrease (Female)
- Cholesterol, Significance [P < 0.05] [5]: Increase (Male)
- Creatinine, Significance [P < 0.05] [5]: Decrease (Male)
- Food intake [5]: normal and comparable to the animals of vehicle control group
- Kidney (Abs) organ weight, Significance[P < 0.05] [5]: Decrease (Male)
- Kidney (Rel) organ weight, Significance[P < 0.05] [5]: Increase (Male)
- Platelet Count, Significance [P < 0.05] [5]: Increase (Male)
- Spleen (Abs) organ weight, Significance[P < 0.05] [5]: Decrease (Male)
- Total Protein, Significance [P < 0.05] [5]: Increase (Female)
- histological sections of organs [5]: did not show any histopathological changes
- Mean Clotting Time (± S.D.) (Male albino rats): 5.3 ± 1.06 min
- relative efficacy on clotting time (Male albino rats; 2 hours after dosing): relatively better efficacy than the other two formulations
- mean blood clotting time with respect to positive control (statistics) (Male albino rats): no significant difference at 5% significance level

Molecule: Glycine Ester of Cyclosporine A [Cyclosporine-G]
- performance in the model (laboratory mice [1]): didn't perform as expected
- Mean DAI (laboratory mice [1]): 1.531
- Mean DAI (laboratory mice [2]): 0.100
- mice that died (out of 10) (laboratory mice [2]; treatment study): none died
- statistical result vs Cyclosporine reference drug (laboratory mice [2]; treatment study): statistically significant results

Molecule: NCCCC[C@H](N)C(=O)O [lysine]
- solubility [6]: 700 mg/mL (≈ 4790 mM)
- solubility in deionized water [6]: approximately 700 g/L

Molecule: O=C(O)[C@@H]1C[C@@H](O)CN1 [hydroxyproline]
- solubility in deionized water [6]: ~369 mg/mL (≈ 2810 mM)

Molecule: CC(C)c1cccc(C(C)C)c1OC(=O)C(N)CCCCN.Cl.Cl (stereo in doubt) [Propofol Lysine Ester, 2(S),6-Diamino-hexanoic acid 2,6-diisopropyl-phenyl ester, dihydrochloride]
- anesthetic effect, relative efficacy (albino mouse; Intermediate Dose): did not show any anesthetic effect
- anesthetic effect, relative efficacy (albino mouse; Low Dose): did not show any anesthetic effect
- efficacy in inducing anesthesia based on time required to regain the righting reflex (conclusion) (albino mouse): relatively better efficacy
- dose response relation (statistical analysis) (albino mouse): significant improvement at 5% significance level in the relative efficacy for the high dose when compared to low dose group
- solubility in water [7]: > 250 mg/mL

Molecule: CC(=O)Oc1ccccc1C(=O)OC1CN[C@H](C(=O)O)C1 (stereo partly drawn) [2-O-Acetylsalicylic Acid (2S,4R)-4-hydroxyproline Ester]
- Clotting Time (rats; 10 mg/kg 1 hr): 7.5 min
- Clotting Time (rats; 10 mg/kg 24 hr): 3.3 min
- Clotting Time (rats; 20 mg/kg 2 hr): 4.2 min
- Mean Clotting Time (±S.D.), Low Dose (albino rats): 6.1 ± 1.10 min
- Mean Clotting Time (±S.D.), Intermediate Dose (albino rats): 5.7 ± 0.82 min
- Mean Clotting Time (±S.D.), High Dose (albino rats): 7.5 ± 1.18 min
- effectiveness with respect to clotting time (albino rats): as effective as acetylsalicylic acid
- statistical analysis of mean clotting time vs vehicle control (albino rats): significant improvement at 5% significance level in the efficacy for the high dose and low dose
- esters inducing evidence of irritation of gastric mucosa [3]: none
- Mean Clotting Time (± S.D.) (Male albino rats): 4.2 ± 1.32 min
- mean blood clotting time with respect to positive control (statistics) (Male albino rats): no significant difference at 5% significance level

Molecule: CC(C)c1cccc(C(C)C)c1OC(=O)CN.Cl [Propofol Glycine Ester, Amino-acetic acid 2,6-diisopropyl-phenyl ester, hydrochloride]
- anesthetic effect, relative efficacy (albino mouse; High Dose): more effective
- anesthetic effect, relative efficacy (albino mouse; Low Dose): more effective
- efficacy in inducing anesthesia based on time required to regain the righting reflex (conclusion) (albino mouse): relatively better efficacy
- dose response relation (statistical analysis) (albino mouse): not statistically evident
- solubility ([7]; water, solubility in water): > 100 mg/mL
- feed intake ([8]; 14 days): normal and comparable to that of vehicle control group
- behavior, feed consumption, organ weights, histopathology of different organs ([8]; 14 days, vs reference group): normal and comparable to that of the animals of the reference group
- animals exhibiting clinical symptoms of toxicity ([8]; IV daily 14 days): None of the animals
- body weight gain ([8]; IV daily 14 days, compared to vehicle control): reduced in both the sexes
- MCV vs Propofol injection (RC) [p<0.05] ([8]; female animals): significantly decreased
- granulocytes counts vs Propofol injection (RC) [p<0.05] ([8]; female animals): significantly increased
- reduced body weight gain compared to vehicle control ([8]; females, 14 days): 26.94%
- reduced body weight gain compared to vehicle control ([8]; males, 14 days): 25.87%

Molecule: CC(=O)Oc1ccccc1C(=O)OC[C@H](N)C(=O)O [L-serine ester of acetylsalicylic acid, 2-O-Acetylsalicylic Acid (2S)-(+)-serine Ester]
- Clotting Time (rats; 10 mg/kg 1 hr): 6.9 min
- Clotting Time (rats; 10 mg/kg 24 hr): 4.4 min
- Clotting Time (rats; 20 mg/kg 2 hr): 3.8 min
- Mean Clotting Time (±S.D.), Low Dose (albino rats): 5.7 ± 1.34 min
- Mean Clotting Time (±S.D.), Intermediate Dose (albino rats): 6.8 ± 1.48 min
- Mean Clotting Time (±S.D.), High Dose (albino rats): 6.9 ± 1.37 min
- effectiveness with respect to clotting time (albino rats): as effective as acetylsalicylic acid
- esters inducing evidence of irritation of gastric mucosa [3]: none
- Mean Clotting Time (± S.D.) (Male albino rats): 3.8 ± 0.92 min

Molecule: Cyclosporine A N-(L-lysine)-glycine ester, dihydrochloride trihydrate [Cyclosporine-GL]
- Mean DAI (laboratory mice [1]): 1.100
- Mean DAI (laboratory mice [2]): 0.532
